# Measurements published in patent publication US20060003965A1, “N-acetyl-d-glucosamine (nag) supplemented food products and beverages” (priority 2002, published 2006).
# Legend:
# [1] = pH of supplemented tea before and after heating; type: physicochemical; conditions: tea with 5.7 g per quart; for Initial pH: before heating
# Protocol: Tea made from Lipton® instant tea mix was used as the basis for incorporation of samples. To prepare the tea, the following recipe was used: 2.69 g instant tea, 5.7 g GLCN or NAG (where applicable) then add water to one quart. Tea was prepared for sensory testing as follows:
# Batch 2. Tea+glucosamine (pH 5-6) [GLCN from fungal biomass, see batch 2 Example 1]
# Batch 3. Tea+NAG (pH 5-6) (N-Acetyl-D-glucosamine, Catalog # A-102-2, Ferro Pfanstiehl, Waukegan, Ill.)
# Batch 4. Tea+glucosamine (pH 5-6) heated to 71° C. for 20 minutes
# Batch 5. Tea+glucosamine heated (pH 5-6) to 90° C. for 20 seconds, flash cooled in ice water bath
# Batch 6. Tea+glucosamine (pH 5-6) boiled on stove for 5 minutes, flash cooled in ice water bath
# Batch 7. Tea+NAG (pH 5-6) heated to 71° C. for 20 minutes
# Batch 8. Tea+NAG (pH 5-6) heated to 90° C. for 20 seconds, flash cooled in ice water bath
# Batch 9. Tea+NAG (pH 5-6) boiled on stove for 5 minutes, flash cooled in ice water bath
# [2] = Stability in simulated gastric fluid (SGF); type: in vitro ADME; conditions: 1 g in SGF with pepsin, pH about 1.2, 37° C., sampled at 0, 5, 15 and 60 minutes
# Protocol: To test the availability of NAG in the stomach, a simulated stomach environment was constructed, and a known concentration of NAG was added to simulated gastric fluid (SGF) and maintained at conditions simulating the stomach. If NAG is degraded or derivatized in the stomach, the NAG concentration will decrease. If the concentration of NAG remains the same, it is likely that the NAG is available to the body.
# SGF was prepared based on a 1995 United States Pharmacopoeia (USP) monograph. An artificial stomach environment was simulated according to generally accepted practice (see Consumers Union website, 101 Truman Ave., Yonkers, N.Y. 10703-1057). To prepare simulated gastric fluid, 2.0 g of NaCl and 3.2 g of pepsin were dissolved in 7.0 mL of hydrochloric acid (concentrated) and sufficient water to make a 1000 mL solution.
# NAG samples were prepared as follows. […]
# Before introduction of samples into the SGF, a sample of the SGF was analyzed as a blank, to determine the baseline. Upon addition of the NAG to the SGF, a sample was immediately analyzed to determine the concentration of NAG at time zero. After introduction of NAG into the SGF, samples were pulled and analyzed at 5 minutes, 15 minutes, and 60 minutes to provide a profile of NAG concentration in the simulated stomach, and analyzed for the concentration of NAG.
# [3] = NAG recovery following heating, acid extraction method, HPLC; type: physicochemical; conditions: all foods and beverages of Table 14
# Protocol: Food samples were homogenized prior to analysis. Where possible, samples were frozen or dried and ground. Baked goods were crumbled and mixed to produce a homogeneous material. Suitable blanks (samples with no added NAG) of each food type were analyzed to assess interferences. Mass changes between unheated ingredient mixtures and baked final products were tracked to permit accurate recovery calculations.
# A food or beverage sample as described in the preceding examples containing 5 to 20 mg of N-acetylglucosamine (NAG) was dispersed in 25 g of 0.1 N HCl in a 50-mL polypropylene centrifuge tube and capped tightly. The sample was mixed for 30 seconds using a vortex mixer, then placed in a water bath at 37° C. The sample was removed from the water bath at 15-minute intervals and mixed for 30 seconds on a vortex mixer and then returned to the water bath. This cycle was repeated until the sample had been in the water bath for one hour. After heating, the sample was mixed for 30 seconds on a vortex mixer, then centrifuged for 10 minutes to separate the liquid and solid phases. Fats, oils or lipids in the sample formed a third layer at the top of the tube. […]
# NAG recovery was determined using high performance liquid chromatography (HPLC) using a combination of refractive index and UV (195 nm) detection. […]
# [4] = heated to 71° C. for 20 minutes
# [5] = heated to 90° C. for 20 seconds
Structure (SMILES),Initial pH [1],pH after heating ([1]; boiled 5 minutes),"pH after heating [1, 4]","pH after heating [1, 5]",Loss of NAG in simulated gastric fluid [2],"amount of NAG recovered following heating, range over Table 14 samples [3]"
"Cl.N[C@H]1C(O)O[C@H](CO)[C@@H](O)[C@@H]1O (stereo partly shown) [Fungal GLCN, glucosamine hydrochloride, reference compound]",5.09,4.87,5.13,5.00,,
"CC(=O)N[C@H]1C(O)O[C@H](CO)[C@@H](O)[C@@H]1O (stereo partly drawn) [NAG, N-Acetyl-D-glucosamine]",5.46,5.22,5.40,5.31,no significant loss of NAG,77%-100%
